From PubChem BioAssay AID624405 (Broad Institute, 2012)
Results filed as inconclusive are left out.

These compounds were tested on C2C12 myotubes + simvastatin, ATP luminescence, 48 h (assay: suppressors of statin myotoxicity in myotubes, dose response, cell-based, C2C12 myotubes, ATP luminescence, cherry pick (AID 624405);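 also: myotubes are challenged with simvastatin at 10 µM to lower ATP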).

`CC(C)(C)c1ccc(Cn2nnc3c(=O)[nH]c(C4CCN(C(=O)Cc5cccs5)CC4)nc32)cc1` and `O=C(C[C@H]1CC[C@@H]2[C@H](COC[C@@H](O)CN2Cc2ccc(Oc3ccccc3)cc2)O1)N1CCCCC1` are within 1.5-fold of each other in AC40: 3.99 µM for the first, 3.19 µM for the second.

`C[C@H]1CN([C@@H](C)CO)C(=O)Cc2cc(NC(=O)CCCCCC(=O)Nc3ccccc3N)ccc2O[C@H]1CN(C)Cc1ccc(Cl)c(Cl)c1` and `C[C@@H]1CN([C@H](C)CO)C(=O)Cc2cc(NC(=O)CCCCCC(=O)Nc3ccccc3N)ccc2O[C@@H]1CN(C)CC1CCCCC1` are within 1.5-fold of each other in AC40: 12.6 µM for the first, 15.4 µM for the second.

First: O=C(NCc1ccco1)c1cc2sccc2n1Cc1ccc(F)cc1
Second: Cc1ccc(NS(=O)(=O)c2ccc(-n3cccn3)cc2)cc1F
The AC40 of the first is 3.1-fold higher: 16.4 µM for the first, 5.32 µM for the second.

Compared with `C[C@@H]1CN([C@H](C)CO)C(=O)c2cc(NC(=O)Nc3cccc4ccccc34)ccc2O[C@@H]1CN(C)Cc1ccc(C(=O)Nc2ccccc2N)cc1`, `C[C@H](CO)N1C[C@H](C)[C@H](CN(C)Cc2ccc(C(=O)Nc3ccccc3N)cc2)Oc2ccc(N(C)C)cc2C1=O` is 2.5-fold lower in AC40: 6.44 µM for the first, 2.53 µM for the second.

`Cc1ccc(N2CC(C(=O)Nc3ccc(N(C)C)cc3)CC2=O)cc1C` (stereo unspecified) and `C[C@@H]1CN([C@@H](C)CO)C(=O)Cc2cc(N(C)C)ccc2O[C@@H]1CN(C)Cc1ccc(Cl)c(Cl)c1` are within 1.5-fold of each other in AC40: 12 µM for the first, 9.93 µM for the second.

First: C[C@H](CO)N1C[C@H](C)[C@@H](CN(C)Cc2ccc(Cl)c(Cl)c2)Oc2ccc(NS(=O)(=O)c3cn(C)cn3)cc2CC1=O
Second: C[C@H]1CN([C@@H](C)CO)C(=O)Cc2cc(NS(=O)(=O)c3ccc(F)cc3)ccc2O[C@@H]1CN(C)Cc1ccc(Cl)c(Cl)c1
The AC40 of the first is 3-fold lower: 5.29 µM for the first, 15.8 µM for the second.

`Cc1cc(C)c(C)c(S(=O)(=O)NCC(=O)N2CCCC2)c1C` and `Cc1ccc(S(=O)(=O)N2CCN(C(=O)c3cccs3)CC2)cc1C` are within 1.5-fold of each other in AC40: 13.2 µM for the first, 9.44 µM for the second.

`Cc1c(NC(=O)CSc2ccccn2)c(=O)n(-c2ccccc2)n1C` and `CCCCCn1c(=O)c(C(=O)c2ccccc2)nc2ccccc21` are within 1.5-fold of each other in AC40: 10.7 µM for the first, 15.6 µM for the second.

`CCC(C(=O)N(C(C)C)C(C)C)c1ccccc1` (stereo unspecified) and `Cc1ccc(S(=O)(=O)N(C)C[C@H]2Oc3c(NC(=O)Nc4ccccc4)cccc3C(=O)N([C@@H](C)CO)C[C@H]2C)cc1` are within 1.5-fold of each other in AC40: 18.8 µM for the first, 18 µM for the second.

`COc1ccc(-n2c(C)cc(C=O)c2C)cc1Cl` and `COc1ccc(S(=O)(=O)N2CCCCC2)cc1C(C)C` are within 1.5-fold of each other in AC40: 9.14 µM for the first, 8.77 µM for the second.

Compared with `COc1cc(NC(=O)CN(C)S(=O)(=O)c2ccc3c(c2)CC(C)N3C(C)=O)cc(OC)c1OC` (stereo unspecified), `COc1cccc(OC)c1C(=O)N1CCN(S(=O)(=O)c2ccc(C)cc2)CC1` is 68-fold lower in AC40: 15.9 µM for the first, 0.233 µM for the second.

Going from `CCOC(=O)n1c(=O)n(Cc2c(Cl)cccc2Cl)c2ccccc21` to `CCOC(=O)N1CCN(C(=O)CN(Cc2ccccc2)S(=O)(=O)c2ccc(OC)c(Cl)c2)CC1`, the AC40 rises from 7.14 µM to 15.7 µM (2.2-fold).

`CCc1ccc(CNCc2cccnc2)cc1` and `CCN(CC)c1ncnc2c1cnn2Cc1ccc(C)cc1` are within 1.5-fold of each other in AC40: 17.7 µM for the first, 12 µM for the second.

First: Cc1noc(C)c1S(=O)(=O)Nc1ccc2c(c1)CC(=O)N([C@H](C)CO)C[C@@H](C)[C@H](CN(C)Cc1ccc(-c3ccccc3)cc1)O2
Second: C[C@@H]1CN([C@H](C)CO)C(=O)Cc2cc(NC(=O)C3CCCCC3)ccc2O[C@H]1CN(C)Cc1ccc(Cl)c(Cl)c1
The AC40 of the first is 3.9-fold higher: 20.3 µM for the first, 5.24 µM for the second.

Going from `O=C(CCCSc1nc(-c2ccco2)cc(C(F)(F)F)n1)NCc1cccs1` to `C=CCn1c(SCC(=O)NC2CCCC2)nc2scc(-c3ccco3)c2c1=O`, the AC40 falls from 15.1 µM to 9.19 µM (1.6-fold).

First: COc1ccc(S(=O)(=O)Nc2cccc3c2O[C@H](CN(C)C(=O)Nc2ccc(F)cc2)[C@H](C)CN([C@@H](C)CO)C3=O)cc1
Second: COc1ccc(S(=O)(=O)N(C)C[C@H]2Oc3c(NC(=O)Nc4ccc(F)cc4)cccc3C(=O)N([C@@H](C)CO)C[C@H]2C)cc1
The AC40 of the first is 2.1-fold lower: 6.89 µM for the first, 14.5 µM for the second.

Compared with `CC(=O)c1ccc(-c2cc([C@H]3[C@H]4C=CC[C@@H](C)[C@@H]4C(=O)N3Cc3ccccc3)ccc2F)cc1`, `COc1ccc(N2CCN(C(=O)c3ccc4c(c3)CCN4S(=O)(=O)c3ccccc3)CC2)cc1` is 1.8-fold higher in AC40: 8.76 µM for the first, 16.2 µM for the second.

First: Cc1noc2ncnc(Sc3ccc(Cl)cc3)c12
Second: CC(=O)c1c(C(C)=O)c(C)n(Cc2ccc(Cl)cc2)c1C
The AC40 of the first is 5.4-fold lower: 3.11 µM for the first, 16.9 µM for the second.

Going from `C[C@H]1C[C@@H](C)C(=O)[C@@H]([C@H](O)CC2CC(=O)NC(=O)C2)C1` to `Cc1cc2c3c(c1)C1(SCC(=O)N1c1ccc(F)cc1)C(=O)N3C(C)(C)CC2C` (stereo unspecified), the AC40 rises from less than 0.16 µM to 4.82 µM.

Compared with `COc1cc(OC)cc(-c2nnc(SCC(=O)N3CCCc4ccccc43)o2)c1`, `COc1cc(/C=C(/C(=O)c2cccs2)c2nc3ccccc3[nH]2)cc(OC)c1O` is 12-fold lower in AC40: 16.8 µM for the first, 1.38 µM for the second.

First: COc1ccc(C#Cc2cnc3c(c2)C(=O)N([C@H](C)CO)C[C@H](C)[C@H](CN(C)Cc2ccccc2)O3)cc1OC
Second: COc1ccccc1NS(=O)(=O)c1cccc(NC(=O)c2nc3nc(C)cc(C)n3n2)c1
The AC40 of the first is 3.2-fold lower: 2.66 µM for the first, 8.63 µM for the second.

First: O=C(OCc1nc2ccccc2s1)c1cnccn1
Second: Cc1cccc(-c2nnc3n2N=C(c2ccccc2Br)CS3)c1
The AC40 of the first is 34-fold higher: 9.58 µM for the first, 0.28 µM for the second.

Compared with `COc1cc2c(cc1OC)C(=O)CCS2`, `NC1=NC(=Nc2ccccc2)c2ccccc21` is 8.7-fold higher in AC40: 1.88 µM for the first, 16.3 µM for the second.
